Source: the supplement of paper PMC12317010
Structures can show the parent of a compound that is named as a salt.

Test: collision cross section in nitrogen (drift tube, single-field); higher = larger gas-phase ion size
[1] = ion type: [M+], ion source: APCI, ion mode: Positive
[2] = ion type: [M+H], ion source: ESI, ion mode: Positive
[3] = ion type: [M+H], ion source: APCI, ion mode: Positive
[4] = ion type: [M+Na], ion source: ESI, ion mode: Positive
[5] = ion type: [M-H], ion source: ESI, ion mode: Negative
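Also: chemical standards at 10 µM analysed by drift tube IMS-QTOF MS in about 3.95 torr nitrogen, mean of duplicate injections differing ≤1%, mass error below 10 ppm.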

c1ccc2c(c1)Nc1ccccc1S2 [Phenothiazine]
collision cross section in nitrogen [1]: 136 Å²

O=c1cccc[nH]1 [2(1H)-Pyridinone]
collision cross section in nitrogen [2]: 115.5 Å²

COC(=O)c1ccc(I)cc1S(=O)(=O)NC(=O)Nc1nc(C)nc(OC)n1 [Iodosulfuron methyl ester sodium salt]
collision cross section in nitrogen [3]: 194.5 Å²
collision cross section in nitrogen [2]: 194.2 Å²
collision cross section in nitrogen [4]: 195.8 Å²
collision cross section in nitrogen [5]: 196.1 Å²

O=C(Nc1ccc(Br)cc1)c1cc(Br)cc(Br)c1O [Tribromsalan]
collision cross section in nitrogen [5]: 173.7 Å²

COc1nn(C(=O)NS(=O)(=O)c2ccccc2OC(F)(F)F)c(=O)n1C [Flucarbazone-sodium]
collision cross section in nitrogen [5]: 182.9 Å²

CCCCCCCCCCCCOC(C)=O [Dodecyl acetate]
collision cross section in nitrogen [5]: 162 Å²

Oc1ccc(C(c2ccc(O)cc2)(C(F)(F)F)C(F)(F)F)cc1 [Bisphenol AF]
collision cross section in nitrogen [5]: 165.6 Å²

CC(C)(CO)[C@@H](O)C(=O)NCCC(=O)O [Sodium pantothenate]
collision cross section in nitrogen [4]: 151.2 Å²
collision cross section in nitrogen [5]: 147.1 Å²

Oc1ccc2c(c1)Cc1ccccc1-2 [2-Hydroxyfluorene]
collision cross section in nitrogen [5]: 141.5 Å²

O=C(O)CCCC[C@@H]1SC[C@H]2NC(=O)N[C@@H]12 [Biotin]
collision cross section in nitrogen [3]: 149.9 Å²
collision cross section in nitrogen [2]: 149.3 Å²
collision cross section in nitrogen [4]: 159.6 Å²
collision cross section in nitrogen [5]: 155.5 Å²

CCOP(=S)(OCC)Oc1ccc(S(C)=O)cc1 (stereo not drawn) [Fensulfothion]
collision cross section in nitrogen [2]: 174.5 Å²
collision cross section in nitrogen [4]: 169.7 Å²

CCCCCCCCCCCCCCCC(=O)O [Hexadecanoic acid]
collision cross section in nitrogen [5]: 169.2 Å²

CN(C)c1ccncc1 [N,N-dimethylpyridin-4-amine]
collision cross section in nitrogen [3]: 120.6 Å²
collision cross section in nitrogen [2]: 120.5 Å²

O=[N+]([O-])O [Magnesium dinitrate hexahydrate]
collision cross section in nitrogen [5]: 104.1 Å²

Cc1cc(OC(=O)N(C)C)nn1C(=O)N(C)C [Dimetilan]
collision cross section in nitrogen [3]: 152.5 Å²
collision cross section in nitrogen [2]: 153.1 Å²
collision cross section in nitrogen [4]: 157.9 Å²

C=CCOC(=O)c1ccc(C(=O)OCC=C)c(C(=O)OCC=C)c1 [Triallyl trimellitate]
collision cross section in nitrogen [4]: 189.3 Å²

OC(Cc1ccccc1Cl)(Cn1nc[nH]c1=S)C1(Cl)CC1 (stereo not drawn) [Prothioconazole]
collision cross section in nitrogen [4]: 174.4 Å²
collision cross section in nitrogen [5]: 171 Å²

Cc1cc(CCC(=O)OCC(C)(C)C2OCC3(CO2)COC(C(C)(C)COC(=O)CCc2cc(C)c(O)c(C(C)(C)C)c2)OC3)cc(C(C)(C)C)c1O (stereo not drawn) [Sumilizer GA 80]
collision cross section in nitrogen [3]: 268.1 Å²
collision cross section in nitrogen [4]: 261.6 Å²
collision cross section in nitrogen [1]: 269.1 Å²
collision cross section in nitrogen [5]: 268.7 Å²
